Assay results: EP0334055A2, “Substituted benzoxazinones, several processes and intermediates for their preparation and their use as herbicides” (BAYER AG, priority 1988, dated 1989)

Columns and labels:
Testpflanzen [1] = assay: Post-emergence test (herbicidal damage to test plants); type: in vivo; settings: plants 5 - 15 cm, 2000 l Wasser/ha, damage rated after three weeks, compared with Vergleichssubstanz (A) (Oxadiazone/Ronstar)
Description: Lösungsmittel: 5 Gewichtsteil Aceton Emulgator: 1 Gewichtsteil Alkylarylpolyglykolether
(§1) Zur Herstellung einer zweckmäßigen Wirkstoffzubereitung vermischt man 1 Gewichtsteil Wirkstoff mit der angegebenen Menge Lösungsmittel, gibt die angegebene Menge Emulgator zu und verdünnt das Konzentrat mit Wasser auf die gewünschte Konzentration.
Mit der Wirkstoffzubereitung spritzt man Testpflanzen, welche eine Höhe von 5 - 15 cm haben so, daß die jeweils gewünschten Wirkstoffmengen pro Flächeneinheit ausgebracht werden. Die Konzentration der Spritzbrühe wird so gewählt, daß in 2000 l Wasser/ha die jeweils gewünschten Wirkstoffmengen ausgebracht werden. Nach drei Wochen wird der Schädigungsgrad der Pflanzen bonitiert in % Schädigung im Vergleich zur Entwicklung der unbehandelten Kontrolle.
Es bedeuten: 0 % = keine Wirkung (wie unbehandelte Kontrolle) 100 % = totale Vernichtung

Testpflanzen [2] = assay: Pre-emergence test (herbicidal damage to test plants); type: in vivo; settings: damage rated after three weeks against untreated control, compared with Vergleichssubstanz (A) (Oxadiazone/Ronstar)
Description: Lösungsmittel: 5 Gewichtsteile Aceton Emulgator: 1 Gewichtsteil Alkylarylpolyglykolether
as §1
Samen der Testpflanzen werden in normalen Boden ausgesät und nach 24 Stunden mit der Wirkstoffzubereitung begossen. Dabei hält man die Wassermenge pro Flächeneinheit zweckmäßigerweise konstant. Die Wirkstoffkonzentration in der Zubereitung spielt keine Rolle, entscheidend ist nur die Aufwandmenge des Wirkstoffs pro Flächeneinheit. Nach drei Wochen wird der Schädigungsgrad der Pflanzen bonitiert in % Schädigung im Vergleich zur Entwicklung der unbehandelten Kontrolle. Es bedeuten: 0 % = keine Wirkung (wie unbehandelte Kontrolle) 100 % = totale Vernichtung

## 2-(3,4-Dihydro-3-oxo-4-propargyl-2H-1,4-benzoxazinyl)-3-chloro-4,5,6,7-tetrahydro-2H-indazol [Beispiel 31]
Testpflanzen [1]
  Wirksamkeit gegenüber der Vergleichssubstanz (A): deutliche Überlegenheit
Testpflanzen [2]
  Wirksamkeit gegenüber der Vergleichssubstanz (A): deutliche Überlegenheit

## C#CCN1C(=O)COc2cc(F)c(-n3nc(C(C)(C)C)oc3=O)cc21 [Beispiel 5, 7-Fluor-4-propargyl-6-(2-tert-butyl-5-oxo-4,5-dihydro-1H-1,3,4-oxadiazol-3-yl)-3,4-dihydro-3-oxo-2H-1,4-benzoxazin]
Testpflanzen [1]
  Wirksamkeit gegenüber der Vergleichssubstanz (A): deutliche Überlegenheit
Testpflanzen [2]
  Wirksamkeit gegenüber der Vergleichssubstanz (A): deutliche Überlegenheit

## C#CCN1C(=O)COc2cc(F)c(-n3nc(C)c(Cl)c3C)cc21 [Beispiel 24, 7-Fluor-6-(3,5-dimethyl-4-chlorpyrazol)-4-propargyl-3,4-dihydro-3-oxo-2H-1,4-benzoxazin]
Testpflanzen [2]
  Wirksamkeit gegenüber der Vergleichssubstanz (A): deutliche Überlegenheit

## CC(C)(C)c1nn(-c2cc3c(cc2F)OCC(=O)N3)c(=O)o1 [Beispiel 3, 7-Fluor-6-(2-tert-butyl-5-oxo-4,5-dihydro-1H-1,3,4-oxadiazol-3-yl)-3,4-dihydro-3-oxo-2H-1,4-benzoxazin]
Testpflanzen [1]
  Wirksamkeit gegenüber der Vergleichssubstanz (A): deutliche Überlegenheit
Testpflanzen [2]
  Wirksamkeit gegenüber der Vergleichssubstanz (A): deutliche Überlegenheit

## 7-Fluor-6-trimethylpyrazolyl-4-propargyl-3,4-dihydro-3-oxo-2H-1,4-benzoxazin [Beispiel 4]
Testpflanzen [1]
  Wirksamkeit gegenüber der Vergleichssubstanz (A): deutliche Überlegenheit
Testpflanzen [2]
  Wirksamkeit gegenüber der Vergleichssubstanz (A): deutliche Überlegenheit

## O=C1COc2ccc(-n3nc4c(c3Cl)CCCC4)cc2N1 [Beispiel 30, 2-(3,4-dihydro-3-oxo-2H-1,4-benzoxazinyl)-3-chloro-4,5,6,7-tetrahydro-2H-indazol]
Testpflanzen [2]
  Wirksamkeit gegenüber der Vergleichssubstanz (A): deutliche Überlegenheit
